The record followed here is PubChem BioAssay (NCI).

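Exposure lasted 48 hours, with cells grown in 96-well plates and compounds tested at five concentrations. TGI marks complete inhibition of growth.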

Among the test systems are A498 renal; ACHN renal; COLO 205 colon; EKVX NSCLC; HCT-15 colon; IGROV1 ovarian; M14 melanoma; MDA-MB-435; MOLT-4 leukemia; NCI-H23 lung; NCI-H522 lung; SF-268 CNS; SF-295 CNS; SK-MEL-2 melanoma; SK-OV-3 ovarian; T-47D breast; CAKI-1 renal; UACC-257 melanoma; UACC-62 melanoma.
Assay in all cases: DTP human tumour cell line panel, 48 h

Turning to `CC(C)=NOC(=O)OC[C@H]1O[C@@H](n2cnc3c(N)ncnc32)C(O)C1O` (some centres undefined), the TGI in the test with A498 renal, in the test on ACHN renal, in the test with COLO 205 colon, with EKVX NSCLC, in the test on HCT-15 colon and with IGROV1 ovarian was > 100 µM each time. Further, the TGI with M14 melanoma, with MDA-MB-435, in the test on MOLT-4 leukemia, in the test on NCI-H23 lung, with NCI-H522 lung and in the test with SF-268 CNS was > 100 µM throughout. Also, the TGI in the test on SF-295 CNS, with SK-MEL-2 melanoma, in the test with SK-OV-3 ovarian and with T-47D breast was > 100 µM each time.
Take `CCOP(=O)(Nc1ccc(-c2ccc(N)cc2)cc1)OCC`: the TGI with A498 renal, in the test with ACHN renal, in the test with CAKI-1 renal, with COLO 205 colon, in the test with EKVX NSCLC and in the test on HCT-15 colon was > 100 µM each time. For the same molecule, the TGI in the test with IGROV1 ovarian, in the test on M14 melanoma, with MDA-MB-435, with MOLT-4 leukemia, with NCI-H23 lung and with NCI-H522 lung was > 100 µM in each case. The TGI in the test on SF-268 CNS, with SF-295 CNS, in the test on SK-MEL-2 melanoma, in the test on SK-OV-3 ovarian, in the test on UACC-257 melanoma and in the test with UACC-62 melanoma was > 100 µM in each case.
On to `C=CCCCN1CCCCC1=S`, for which the TGI with ACHN renal, in the test with COLO 205 colon, in the test with EKVX NSCLC, in the test on HCT-15 colon, in the test with IGROV1 ovarian and in the test on M14 melanoma was > 100 µM each time. Also, the TGI with MOLT-4 leukemia, with NCI-H23 lung, with NCI-H522 lung, in the test on SF-295 CNS, in the test with SK-MEL-2 melanoma and in the test with SK-OV-3 ovarian was > 100 µM each time. Further, the TGI in the test on UACC-257 melanoma and with UACC-62 melanoma was > 100 µM throughout.
With `CCOc1cc(C2SCC(=O)N2c2ccc3c(c2)Oc2c(Cl)c4c(c(Cl)c2=N3)Oc2cc(N3C(=O)CSC3c3ccc(O)c(OCC)c3)ccc2N=4)ccc1O` (centres undefined), the total growth inhibition concentration (TGI) was > 100 µM with A498 renal; 73.4 µM in the test with ACHN renal; > 100 µM in the test with CAKI-1 renal; > 100 µM with EKVX NSCLC; > 100 µM in the test with HCT-15 colon; > 100 µM in the test on IGROV1 ovarian. Moreover, the TGI in the test on M14 melanoma was 63.8 µM; with MDA-MB-435, > 100 µM; in the test on MOLT-4 leukemia, > 100 µM; with NCI-H23 lung it was 47.6 µM; with NCI-H522 lung, > 100 µM; with SF-268 CNS, > 100 µM. Moreover, the TGI with SF-295 CNS was > 100 µM; with SK-MEL-2 melanoma, 93.9 µM; in the test with T-47D breast, > 100 µM; in the test with UACC-257 melanoma, > 100 µM.
With `O=C1CCCCCCCCCCC1CN1CCOCC1` (centres undefined), the total growth inhibition concentration (TGI) in the test with ACHN renal, in the test with COLO 205 colon, in the test on EKVX NSCLC, with HCT-15 colon, in the test on IGROV1 ovarian and in the test with M14 melanoma was > 100 µM each time. The TGI in the test with MDA-MB-435, in the test with MOLT-4 leukemia, in the test on NCI-H23 lung, with NCI-H522 lung, in the test on SF-268 CNS and in the test on SF-295 CNS was > 100 µM throughout. The TGI in the test with SK-OV-3 ovarian, with T-47D breast, with UACC-257 melanoma and in the test with UACC-62 melanoma was > 100 µM each time.
Consider `Cc1ccc2nc(CN(CCO)CCO)cc(=O)n2c1`, for which the TGI with ACHN renal, in the test with CAKI-1 renal, with COLO 205 colon, in the test with EKVX NSCLC, with HCT-15 colon and in the test on IGROV1 ovarian was > 100 µM throughout. The TGI in the test with M14 melanoma, in the test with MDA-MB-435, with MOLT-4 leukemia, in the test on NCI-H23 lung, with NCI-H522 lung and in the test with SF-268 CNS was > 100 µM each time. In addition, the concentration for total growth inhibition (TGI) in the test with SF-295 CNS, in the test with SK-MEL-2 melanoma, in the test on SK-OV-3 ovarian, with UACC-257 melanoma and in the test with UACC-62 melanoma was > 100 µM in each case.
As to `COC(=O)CCC(=O)c1ccc2c(c1)CC1(C2)Cc2ccc(C(=O)CCC(=O)OC)cc2C1`, the TGI with A498 renal, with ACHN renal, in the test with COLO 205 colon, with EKVX NSCLC, with HCT-15 colon and in the test on IGROV1 ovarian was > 100 µM in each case. The TGI in the test on M14 melanoma, with MDA-MB-435, in the test on MOLT-4 leukemia, in the test on NCI-H23 lung, in the test on NCI-H522 lung and in the test on SF-295 CNS was > 100 µM each time. Also, the TGI was 61 µM in the test on SK-MEL-2 melanoma; > 100 µM in the test on SK-OV-3 ovarian; > 100 µM in the test with T-47D breast; > 100 µM in the test with UACC-257 melanoma; > 100 µM with UACC-62 melanoma.
Turning to `C/C=C\C(CC(=O)NCCC1CN(C(=O)OCc2ccccc2)c2ccccc21)CC(=O)OC` (centres undefined), the TGI in the test with A498 renal, in the test on ACHN renal, in the test on CAKI-1 renal, in the test with COLO 205 colon, in the test on EKVX NSCLC and in the test with HCT-15 colon was > 100 µM in each case. Also, the TGI with IGROV1 ovarian, in the test on M14 melanoma, in the test with MDA-MB-435, with MOLT-4 leukemia, in the test on NCI-H23 lung and in the test on NCI-H522 lung was > 100 µM each time. The TGI with SF-268 CNS, with SF-295 CNS, in the test on SK-MEL-2 melanoma, in the test with SK-OV-3 ovarian, in the test with UACC-257 melanoma and with UACC-62 melanoma was > 100 µM each time.
`O=S1(=O)c2ccccc2N2C(c3ccccc3)=NOC2(c2ccccc2)CC1c1ccc(Br)cc1` (centres undefined): the concentration for total growth inhibition (TGI) in the test on A498 renal, with ACHN renal, in the test on COLO 205 colon, with EKVX NSCLC, in the test with HCT-15 colon and in the test on IGROV1 ovarian was > 100 µM each time. Moreover, the TGI with M14 melanoma, with MDA-MB-435, in the test with MOLT-4 leukemia, with NCI-H23 lung, with NCI-H522 lung and with SF-268 CNS was > 100 µM each time. The TGI in the test on SF-295 CNS, with SK-MEL-2 melanoma, with SK-OV-3 ovarian, with T-47D breast, in the test with UACC-257 melanoma and in the test with UACC-62 melanoma was > 100 µM in each case.
As to `COn1oc(=O)c2ccccc21`, the TGI in the test with A498 renal, in the test with ACHN renal, with CAKI-1 renal, in the test on COLO 205 colon, with EKVX NSCLC and with HCT-15 colon was > 100 µM in each case. In addition, the TGI with IGROV1 ovarian, with M14 melanoma, in the test on MDA-MB-435, in the test with MOLT-4 leukemia, in the test on NCI-H23 lung and in the test with NCI-H522 lung was > 100 µM each time. In addition, the TGI in the test on SF-268 CNS, in the test on SF-295 CNS, in the test with SK-MEL-2 melanoma, in the test on SK-OV-3 ovarian, in the test on UACC-257 melanoma and with UACC-62 melanoma was > 100 µM in each case.
Take `CCOc1ccccc1Nc1ccc(N)cc1S(=O)(=O)O`: the total growth inhibition concentration (TGI) in the test on A498 renal, in the test on ACHN renal, in the test with CAKI-1 renal, with EKVX NSCLC, with HCT-15 colon and in the test on IGROV1 ovarian was > 100 µM in each case. The TGI in the test with M14 melanoma, in the test with MDA-MB-435, with MOLT-4 leukemia, with NCI-H23 lung, with NCI-H522 lung and in the test with SF-268 CNS was > 100 µM each time. The TGI with SF-295 CNS, in the test with SK-MEL-2 melanoma, in the test on T-47D breast, in the test on UACC-257 melanoma and with UACC-62 melanoma was > 100 µM each time.
With `[N-]=[N+]=Nc1c(-c2ccccc2)c(=O)n(-c2ccccc2)c2ccccc12`, the TGI with A498 renal was > 100 µM; with ACHN renal, > 100 µM; in the test on COLO 205 colon it was > 100 µM; in the test on EKVX NSCLC, 48.8 µM; in the test on HCT-15 colon it was > 100 µM; with IGROV1 ovarian, > 100 µM. The TGI is > 100 µM in the test with M14 melanoma; > 100 µM with MDA-MB-435; > 100 µM in the test on MOLT-4 leukemia; > 100 µM in the test with NCI-H23 lung; 97.1 µM in the test with NCI-H522 lung; 62.3 µM with SF-268 CNS. Also, the TGI was > 100 µM in the test on SF-295 CNS; > 100 µM in the test on SK-OV-3 ovarian; 82.2 µM in the test with T-47D breast; > 100 µM in the test on UACC-257 melanoma; > 100 µM with UACC-62 melanoma.
With `O=C1NC(=O)C(C(c2ccc([N+](=O)[O-])cc2)C2C(=O)NC(=O)NC2=O)C(=O)N1`, the concentration for total growth inhibition (TGI) with A498 renal, in the test with ACHN renal, with CAKI-1 renal, in the test with COLO 205 colon, in the test with HCT-15 colon and with IGROV1 ovarian was > 100 µM each time. Moreover, the concentration for total growth inhibition (TGI) in the test with M14 melanoma, with MDA-MB-435, in the test on MOLT-4 leukemia, in the test with NCI-H23 lung, in the test with NCI-H522 lung and with SF-268 CNS was > 100 µM throughout. Besides, the TGI with SF-295 CNS, with SK-MEL-2 melanoma, in the test on T-47D breast, with UACC-257 melanoma and in the test on UACC-62 melanoma was > 100 µM in each case.

One may read the TGI as the concentration giving total growth inhibition. A low value points to more potent growth arrest.
